What was measured:
[1] = biological target: T1, IRAK1 (Homo sapiens, UniProt P51617); experiment: RBC HotSpot Kinase Assay, IRAK1; format: biochemical; details: isolated kinase, 33P-ATP
T1 construct: purchased Reaction Biology (RBC), HotSpot kinase assay
In short: (§1)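 Kinase domain constructs, possibly truncated, were assayed radiometrically with 33P-ATP and substrate after 20 min compound preincubation, reacting 2 h at room temp.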

[2] = tested on: MOLM14 D835Y cells; experiment: MOLM14 D835Y cell viability assay (Cell Titer Glo); format: cell-based; details: Homo sapiens, MOLM-14, 48 h
In short: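 MOLM14 cells carrying FLT3 D835Y or F691L were seeded at 1000 cells/well in RPMI-1640 with 20% FBS and dosed at 22 concentrations, 1:2 dilutions from 10 μM. Viability after 48 h by Cell Titer Glo luminescence; 2.3 μM bortezomib as cytotoxic control.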

[3] = tested on: MOLM14 F691L cells; experiment: MOLM14 F691L cell viability assay (Cell Titer Glo); format: cell-based; details: Homo sapiens, MOLM-14, 48 h
Method: Both cell lines have activated FLT3 receptors, each of which carry additional resistance mutations in the kinase domain (D835Y and F691L, respectively).
MOLM14 D835Y and MOLM14 F691L cells were grown in RPMI-1640 media supplemented with 20% fetal bovine serum (FBS). For viability/cytotoxicity assessments, cells were seeded into 1536-well white polystyrene tissue culture-treated Greiner plates using a Multidrop Combi dispenser (ThermoFisher), in final volume 5 μL of growth media per well, at a density of 1000 cells per well. After cell addition, 23 nL of test compound were transferred into individual wells (22 doses tested for each test compound, with a 1:2 dilution series starting at 10 μM) via a 1536 pin-tool. Bortezomib (final concentration 2.3 μM) was used as a positive control for cell cytotoxicity. Plates were incubated for 48 hours at standard incubator conditions covered by a stainless steel gasketed lid to prevent evaporation. 48 hours post compound addition, 3 μL of Cell Titer Glo (Promega) were added to each well and plates were incubated at room temperature for 15 minutes with the stainless-steel lid in place. Luminescence readings were taken using a Viewlux imager (PerkinElmer) with a 2 second exposure time per plate.

[4] = biological target: T2, IRAK4 (Homo sapiens, UniProt Q9NWZ3); experiment: RBC HotSpot Kinase Assay, IRAK4; format: biochemical; parameters: purchased Reaction Biology (RBC), HotSpot kinase assay; details: isolated kinase, 33P-ATP
T2 sequence (Q9NWZ3 1-460): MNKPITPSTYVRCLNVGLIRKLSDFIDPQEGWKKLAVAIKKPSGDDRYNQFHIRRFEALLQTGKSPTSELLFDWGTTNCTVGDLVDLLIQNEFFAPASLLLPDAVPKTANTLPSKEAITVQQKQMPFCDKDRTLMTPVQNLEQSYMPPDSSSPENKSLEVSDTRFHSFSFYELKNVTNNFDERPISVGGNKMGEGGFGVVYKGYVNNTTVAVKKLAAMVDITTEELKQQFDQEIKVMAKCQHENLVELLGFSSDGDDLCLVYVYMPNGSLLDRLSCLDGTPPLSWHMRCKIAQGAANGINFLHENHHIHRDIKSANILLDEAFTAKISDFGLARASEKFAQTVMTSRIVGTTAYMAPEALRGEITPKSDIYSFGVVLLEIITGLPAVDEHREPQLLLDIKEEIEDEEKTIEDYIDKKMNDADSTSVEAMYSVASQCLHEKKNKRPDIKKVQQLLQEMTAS
In short: as §1

[5] = biological target: T3, FLT3 (Homo sapiens, UniProt P36888); experiment: RBC HotSpot Kinase Assay, FLT3; format: biochemical; parameters: purchased Reaction Biology (RBC), HotSpot kinase assay; details: isolated kinase, 33P-ATP
T3 sequence (P36888 27-993): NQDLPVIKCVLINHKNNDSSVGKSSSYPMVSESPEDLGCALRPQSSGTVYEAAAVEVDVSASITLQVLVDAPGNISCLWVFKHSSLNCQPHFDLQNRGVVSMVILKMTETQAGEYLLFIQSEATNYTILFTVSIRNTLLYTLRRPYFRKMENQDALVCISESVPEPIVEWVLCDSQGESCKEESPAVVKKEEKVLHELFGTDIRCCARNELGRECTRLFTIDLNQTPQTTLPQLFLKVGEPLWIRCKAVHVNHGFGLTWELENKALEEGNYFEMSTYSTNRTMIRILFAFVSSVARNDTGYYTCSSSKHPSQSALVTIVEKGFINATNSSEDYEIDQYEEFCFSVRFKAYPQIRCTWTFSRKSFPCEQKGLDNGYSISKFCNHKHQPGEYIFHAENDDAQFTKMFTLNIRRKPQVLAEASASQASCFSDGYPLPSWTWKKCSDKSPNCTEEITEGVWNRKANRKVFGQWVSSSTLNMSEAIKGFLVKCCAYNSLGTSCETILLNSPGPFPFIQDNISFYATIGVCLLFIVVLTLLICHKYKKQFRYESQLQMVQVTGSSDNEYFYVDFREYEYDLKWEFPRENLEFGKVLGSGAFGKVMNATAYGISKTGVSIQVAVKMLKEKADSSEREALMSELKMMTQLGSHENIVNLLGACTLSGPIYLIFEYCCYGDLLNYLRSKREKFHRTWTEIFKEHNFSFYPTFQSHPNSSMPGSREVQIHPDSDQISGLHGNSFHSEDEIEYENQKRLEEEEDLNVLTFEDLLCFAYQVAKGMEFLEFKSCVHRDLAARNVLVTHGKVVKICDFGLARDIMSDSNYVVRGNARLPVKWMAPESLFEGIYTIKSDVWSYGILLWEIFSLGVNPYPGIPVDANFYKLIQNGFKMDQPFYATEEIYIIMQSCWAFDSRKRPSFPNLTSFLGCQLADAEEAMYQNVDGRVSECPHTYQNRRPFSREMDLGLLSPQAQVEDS
In short: as §1

T1 sequence (P51617 whole entry): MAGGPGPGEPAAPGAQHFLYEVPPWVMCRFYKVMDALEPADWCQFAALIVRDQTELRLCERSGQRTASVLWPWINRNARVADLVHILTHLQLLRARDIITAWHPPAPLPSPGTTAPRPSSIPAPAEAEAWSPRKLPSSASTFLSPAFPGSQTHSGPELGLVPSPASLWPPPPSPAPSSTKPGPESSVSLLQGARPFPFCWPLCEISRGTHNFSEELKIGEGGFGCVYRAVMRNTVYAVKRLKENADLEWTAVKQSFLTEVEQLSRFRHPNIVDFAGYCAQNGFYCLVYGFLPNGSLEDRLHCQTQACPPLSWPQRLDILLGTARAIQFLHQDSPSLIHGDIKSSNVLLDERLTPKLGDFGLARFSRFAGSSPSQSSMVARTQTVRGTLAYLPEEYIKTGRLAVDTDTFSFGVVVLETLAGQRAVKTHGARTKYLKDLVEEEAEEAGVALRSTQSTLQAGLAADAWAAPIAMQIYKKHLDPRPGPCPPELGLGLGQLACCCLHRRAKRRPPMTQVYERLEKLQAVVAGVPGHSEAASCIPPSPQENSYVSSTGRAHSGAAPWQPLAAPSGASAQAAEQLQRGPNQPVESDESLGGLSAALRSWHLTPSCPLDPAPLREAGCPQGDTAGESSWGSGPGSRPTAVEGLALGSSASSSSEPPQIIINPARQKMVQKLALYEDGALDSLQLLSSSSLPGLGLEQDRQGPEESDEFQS

SMILES	IC50 [1]	IC50 [2]	IC50 [3]	IC50 [4]	IC50 [5]
O=C1COCCN1c1cn2c(-c3cccc(N[C@@H]4CCCNC4)n3)cnc2cn1 [Compound 111, (R)-4-(3-(6-(piperidin-3-ylamino)pyridin-2-yl)imidazo[1,2-a]pyrazin-6-yl)morpholin-3-one]	2130 nM	86 nM	344 nM	136 nM	0.5 nM
O=C1COCCN1c1cn2c(-c3cccc(N[C@H]4CNCC[C@@H]4F)n3)cnc2cn1 [Compound 112, 4-(3-(6-(((3S,4S)-4-fluoropiperidin-3-yl)amino)pyridin-2-yl)imidazo[1,2-a]pyrazin-6-yl)morpholin-3-one]	1860 nM	49 nM	183 nM	140 nM	< 0.5 nM
O=C1CCCCN1c1cn2c(-c3cccc(N[C@@H]4CCCNC4)n3)cnc2cn1 [Compound 113, (R)-1-(3-(6-(piperidin-3-ylamino)pyridin-2-yl)imidazo[1,2-a]pyrazin-6-yl)piperidin-2-one]	9940 nM	172 nM	579 nM	1330 nM	0.7 nM
O=C1CCCCN1c1cn2c(-c3cccc(N[C@H]4CNC[C@@H]4F)n3)cnc2cn1 [Compound 114, 1-(3-(6-(((3S,4S)-4-fluoropyrrolidin-3-yl)amino)pyridin-2-yl)imidazo[1,2-a]pyrazin-6-yl)piperidin-2-one]	> 10000 nM	460 nM	4860 nM	132 nM	1 nM
O=C1CCCCN1c1cn2c(-c3cccc(N[C@H]4CNCC[C@@H]4F)n3)cnc2cn1 [Compound 115, 1-(3-(6-(((3S,4S)-4-fluoropiperidin-3-yl)amino)pyridin-2-yl)imidazo[1,2-a]pyrazin-6-yl)piperidin-2-one]	9400 nM	92 nM	273 nM	150 nM	< 0.5 nM
O=C1NCCN1c1cn2c(-c3cccc(N[C@@H]4CCCNC4)n3)cnc2cn1 [Compound 116, (R)-1-(3-(6-(piperidin-3-ylamino)pyridin-2-yl)imidazo[1,2-a]pyrazin-6-yl)imidazolidin-2-one]	125 nM	39 nM	193 nM	14 nM	1 nM
O=C1NCCN1c1cn2c(-c3cccc(N[C@H]4CNC[C@@H]4F)n3)cnc2cn1 [Compound 117, 1-(3-(6-(((3S,4S)-4-fluoropyrrolidin-3-yl)amino)pyridin-2-yl)imidazo[1,2-a]pyrazin-6-yl)imidazolidin-2-one]	75 nM	41 nM	273 nM	2 nM	0.8 nM
O=C1CCCN1c1cn2c(-c3cccc(N[C@@H]4CCCNC4)n3)cnc2cn1 [Compound 120, 1-[3-[6-[[(3R)-3-piperidyl]amino]-2-pyridyl]imidazo[1,2-a]pyrazin-6-yl]pyrrolidin-2-one]	234 nM	24 nM	86 nM	15 nM	< 0.5 nM
CC(C)(C)c1cn2c(-c3cc(F)cc(N[C@H]4CNC[C@@H]4F)n3)cnc2cn1 [Compound 122, 6-(6-(tert-butyl)imidazo[1,2-a]pyrazin-3-yl)-4-fluoro-N-((3S,4S)-4-fluoropyrrolidin-3-yl)pyridin-2-amine]	475 nM	334 nM	770 nM	31 nM	< 0.5 nM
CC(C)(C)c1cn2c(-c3cc(F)cc(N[C@@H]4CCCNC4)n3)cnc2cn1 [Compound 123, (R)-6-(6-(tert-butyl)imidazo[1,2-a]pyrazin-3-yl)-4-fluoro-N-(piperidin-3-yl)pyridin-2-amine]	296 nM	86 nM	244 nM	38 nM	0.6 nM
CC(C)(C)c1cn2c(-c3cc(F)cc(N[C@H]4CNCC[C@@H]4F)n3)cnc2cn1 [Compound 124, 6-(6-(tert-butyl)imidazo[1,2-a]pyrazin-3-yl)-4-fluoro-N-((3S,4S)-4-fluoropiperidin-3-yl)pyridin-2-amine]	143 nM	130 nM	290 nM	17 nM	< 0.5 nM
CC(C)(C)c1cn2c(-c3cccc(N[C@H]4CNC[C@@H]4F)n3)cnc2cn1 [Compound 128, 6-(6-(tert-butyl)imidazo[1,2-a]pyrazin-3-yl)-N-((3S,4S)-4-fluoropyrrolidin-3-yl)pyridin-2-amine]	108 nM	58 nM	326 nM	0.6 nM	< 0.5 nM
CC(C)Oc1cn2c(-c3cccc(N[C@@H]4CCCNC4)n3)cnc2cn1 [Compound 131, (R)-6-(6-isopropoxyimidazo[1,2-a]pyrazin-3-yl)-N-(piperidin-3-yl)pyridin-2-amine]	438 nM	27 nM	168 nM	10 nM	< 0.5 nM
FC(F)COc1cn2c(-c3cccc(N[C@H]4CNCC[C@@H]4F)n3)cnc2cn1 [compound 76, 6-(6-(2,2-difluoroethoxy)imidazo[1,2-a]pyrazin-3-yl)-N-((3S,4S)-4-fluoropiperidin-3-yl)pyridin-2-amine]	159 nM	19 nM	199 nM	1 nM	< 0.5 nM
CC(C)Oc1cn2c(-c3cccc(N[C@H]4CNCC[C@@H]4F)n3)cnc2cn1 [compound 132, N-((3S,4S)-4-fluoropiperidin-3-yl)-6-(6-isopropoxyimidazo[1,2-a]pyrazin-3-yl)pyridin-2-amine]	144 nM	19 nM	119 nM	2 nM	< 0.5 nM

Source: patent US12612410B2 (CHILDREN'S HOSPITAL MEDICAL CENTER, priority 2020, dated 2026)
